Data reported in patent US10721967B2, “Vaporizing devices and methods for delivering a compound using the same” (Altria Client Services LLC, priority 2016, dated 2020).
Where two headings read alike, the source gives them in different places.

Experiments:
[1] = Single-ascending dose pharmacokinetic study: plasma THC after a 3 second inhalation from the vaporizer device; assay type: in vivo, human; conditions: for AUC(0-inf) / Tmax / Cmax: human, plasma, inhaled, single inhalation, mean ± SD; for Cmax: read-out: Δ^9-THC Cmax
Procedure: A study was conducted to investigate the pharmacokinetics, efficacy, safety, and ease of use of a vaporizer device of the present technology for treating disorders in humans. Volunteers were recruited for participation in the study and met the following inclusion criteria: (a) age >30 and <70 years; (b) no known medical problems; and (c) if applicable, negative urine pregnancy test (β human […] gonadotropin pregnancy test). Exclusion criteria were the presence of (a) significant cardiac or pulmonary disease, (b) history of a psychotic or anxiety disorder, (c) pregnancy, pregnancy attempt or breastfeeding, (d) presence of a neuropathic or non-neuropathic pain disorder, (e) low systolic blood pressure, ([…]) (f) diabetes (g) first degree family history of psychotic or anxiety disorder, (h) history of drug addiction, (i) history of drug misuse, (j) concurrent use the following drugs: rifampicin, rifabutin, carbamazepine, or phenobarbital, primidone, (k) using the following plants: Hypericum perforatum, troglitazone, (l) alcohol consumption up to 12 hours prior to the study, (m) abnormal parameters such as heart rate above 100 BPM, blood pressure below 90 mm Hg (systolic), saturation below 91 percent, (n) recreational Cannabis use up to 72 hours before the study, (o) any chronic use of drugs, and (q) age less than 30 or more than 70.
The participants were divided into four dose related groups each group included 3 volunteers. After 3 successful training inhalations, each participant inhaled 3 seconds of a single dose. Dose groups were 10±0.1 mg, 15±0.1 mg, 20±0.1 mg, 25±0.1 mg of THC.
Blood samples were drawn immediately before and at 2, 3, 4, 10, 30 minutes after inhalation for monitoring of plasma levels of THC and its active metabolite Δ^9 Carboxy-THC. The blood was collected in 13×75 mm purple-top Vacutainer tubes containing EDTA. Samples were kept on ice and centrifuged within 30 minutes. Plasma samples were aliquoted into 3.6-mL polypropylene Nunc cryotubes (Thomas Scientific, NJ, USA), stored frozen at −20° C., and analyzed within 6 weeks. The cannabinoid analysis was performed at Pactox (Pacific Toxicology Laboratories) Labs by multidimensional gas chromatography mass spectrometry method.
The study device was as described above in connection with the figures and designed to vaporize up to 80 doses of processed cannabis fibs, resulting in the pulmonary delivery of compounds. The inhaler consisted of a multi-dose cartridge, indication light, and power switch. The cartridge was preloaded with multiple pre-weighed 10.0±0.1 mg, 15.0±0.1 mg, 20.0±0.1 mg, and 25.0±0.1 mg doses of processed cannabis flos. The vaporization process was segmental and triggered by the volunteer pressing the operating button. The segmental evaporation process is aimed at turning THCA into THC^1 and is done by: (1) stage I—heating the material to 100° C. for 9 seconds; (2) stage II—heating the material to 150° C. for 9 seconds; (3) stage III—heating the material to 190° C. to 200° C. (evaporation temperature) for the 3 seconds of inhalation. The transition to the next dose/inhalation is performed by using a mechanical rotation wheel. The device engages automatic thermal control that ensures a complete, high-efficiency delivery of carmabinoid vapors to the lungs. The device allowed for “single inhalation” dose resolution, instantaneous administration, and required no preprocessing or any subject intervention other than the inhalation itself.
The cannabis flowers used in the study were of the Alaska strain provided by “Tikun Olam.” This strain is a hybrid of 70% sativa and 30% indica strains. This strain consists of 20-22% THC and 0% CBD. The processed cannabis flowers used in this study were tested for THC by modified gas-chromatography method without derivatization 1.8 resulting in Δ^9-THC content of 20.08%. The flowers were loaded into the inhaler so as to retain the natural cannabis compounds in. their raw form. […]

[2] = intravenous THC administration, cited from earlier work
[3] = Blood pressure, pulse rate and oxygen saturation after inhalation; assay type: in vivo, human; conditions: for DBP (diastolic blood pressure) / HR (heart rate) / SBP (systolic blood pressure) / SO2 (blood oxygen saturation): mean value
Procedure: (§1) Blood pressure, pulse rate, and oxygen saturation were also recorded at baseline, 30, 60, 90, and 120 minutes post inhalation. A cognitive test was conducted using the Short Blessed Test prior to the experiment at 30, 60 minutes after inhalation and at the end of the experiment.
(§2) The primary outcome of the study was to characterize the inter-individual variability of Δ^9-THC during the absorption phase. The secondary outcome included (a) monitoring adverse effects, (b) blood pressure, and heart rate; and (c) monitoring the response of single-ascending dose with the use of the study device. In addition, the influence of the use of the trial device on the cognitive status of the subject was assessed. A Short Blessed Test cognitive test^19 was used for the purpose of the trial.

[4] = Short Blessed Test cognitive status evaluation; assay type: in vivo, human; conditions: for SET 0 min (Short Blessed Test score): 0 min (prior to inhalation); for SET 0 min (Short Blessed Test score) / SET 30 min (Short Blessed Test score) / SET 120 min (Short Blessed Test score): mean; for SET 30 min (Short Blessed Test score): 30 min after inhalation
Procedure: as §1, §2
The Short Blessed Test, a six-item test, was used as a diagnostic tool enabling the cognitive status evaluation of the volunteers. Each item was scored and total scores were calculated on the following cut off points: Normal or minimally impaired: 0-8, Moderately impaired: 9-19, Severely impaired: 20-33.

[5] = ascending doses 10-25 mg, inhalation

CCCCCc1cc(O)c2c(c1)OC(C)(C)[C@@H]1CCC(C)=C[C@@H]21 [THC, tetrahydrocannabinol]
change in time needed to reach maximum concentration with ascending doses [1, 5]: no significant change
change of AUC with ascending doses [1, 5]: same linear increase
change of maximum concentration with ascending doses [1, 5]: linear increase
AUC(0-inf) ([1]; 0.1 mg, Group IV, 25 ± 0.1 mg): 16.2 ng·h/mL
Tmax ([1]; 0.1 mg, Group IV, 25 ± 0.1 mg): 3 min
Cmax ([1]; 0.1 mg, Group IV, 25 ± 0.1 mg): 88.6 ± 14.8 ng/mL
AUC(0-inf) ([1]; Group I, 10 ± 0.1 mg): 7.36 ng·h/mL
Tmax ([1]; Group I, 10 ± 0.1 mg): 3.67 min
Cmax ([1]; Group I, 10 ± 0.1 mg): 35.4 ± 5.97 ng/mL
AUC(0-inf) ([1]; Group II, 15 ± 0.1 mg): 10.4 ng·h/mL
Tmax ([1]; Group II, 15 ± 0.1 mg): 3.33 min
Cmax ([1]; Group II, 15 ± 0.1 mg): 51.5 ± 13.8 ng/mL
AUC(0-inf) ([1]; Group III, 20 ± 0.1 mg): 11.6 ng·h/mL
Tmax ([1]; Group III, 20 ± 0.1 mg): 2.67 min
Cmax ([1]; Group III, 20 ± 0.1 mg): 72.4 ± 15.9 ng/mL
Cmax of Δ^9-THC ([2]; Reference 1): 43.8 ng/mL
Cmax of Δ^9-THC ([2]; Reference 2): 32.8 ng/mL
Cmax of Δ^9-THC ([2]; Reference 3): 23.8 ng/mL
DBP (diastolic blood pressure) ([3]; 10 mg dose group): 69.46 ± 7.86 mmHg
HR (heart rate) ([3]; 10 mg dose group): 71.66 ± 10.14
SBP (systolic blood pressure) ([3]; 10 mg dose group): 113.4 ± 10.23 mmHg
SO2 (blood oxygen saturation) ([3]; 10 mg dose group): 99.93 ± 0.25%
DBP (diastolic blood pressure) ([3]; 15 mg dose group): 63.85 ± 9.78 mmHg
HR (heart rate) ([3]; 15 mg dose group): 79 ± 13.37
SBP (systolic blood pressure) ([3]; 15 mg dose group): 114.93 ± 6.88 mmHg
SO2 (blood oxygen saturation) ([3]; 15 mg dose group): 100%
DBP (diastolic blood pressure) ([3]; 20 mg dose group): 71.78 ± 14.95 mmHg
HR (heart rate) ([3]; 20 mg dose group): 68.35 ± 5.83
SBP (systolic blood pressure) ([3]; 20 mg dose group): 120.14 ± 28.03 mmHg
SO2 (blood oxygen saturation) ([3]; 20 mg dose group): 99.92 ± 0.26%
DBP (diastolic blood pressure) ([3]; 25 mg dose group): 80.57 ± 8.92 mmHg
HR (heart rate) ([3]; 25 mg dose group): 77.57 ± 17.74
SBP (systolic blood pressure) ([3]; 25 mg dose group): 130 ± 16.62 mmHg
SO2 (blood oxygen saturation) ([3]; 25 mg dose group): 99.42 ± 0.9%
change in blood pressure, heart rate, or blood oxygen saturation ([3]; during the time frame of the study, all dose groups): no significant change
SET 0 min (Short Blessed Test score) ([4]; 10 mg dose group): 0.66 ± 0.94
SET 30 min (Short Blessed Test score) ([4]; 10 mg dose group): 2.33 ± 3.29
SET 120 min (Short Blessed Test score) ([4]; 10 mg dose group): 2.66 ± 0.47
SET 0 min (Short Blessed Test score) ([4]; 15 mg dose group): 0
SET 30 min (Short Blessed Test score) ([4]; 15 mg dose group): 1.33 ± 1.88
SET 120 min (Short Blessed Test score) ([4]; 15 mg dose group): 3 ± 0.81
SET 0 min (Short Blessed Test score) ([4]; 20 mg dose group): 2 ± 1.63
SET 30 min (Short Blessed Test score) ([4]; 20 mg dose group): 0.66 ± 0.94
SET 120 min (Short Blessed Test score) ([4]; 20 mg dose group): 0.66 ± 0.94
SET 0 min (Short Blessed Test score) ([4]; 25 mg dose group): 2 ± 2.82
SET 30 min (Short Blessed Test score) ([4]; 25 mg dose group): 0
SET 120 min (Short Blessed Test score) ([4]; 25 mg dose group): 0
cognitive impairment (Short Blessed Test) ([4]; all volunteers, 0-8 normal or minimally impaired): minimal cognitive impairment
